Tests used:
[1] = tested on: ABUTH; assay: Post-emergence action against ABUTH; type: in vivo, Abutilon theophrasti; settings: post-emergence, dosage 80 g/ha, visual assessment about 3 weeks after treatment vs untreated controls; for pest or weed control at 80 g/ha: Abutilon theophrasti, 504 h, read-out: Post-emergence action against ABUTH (herbicidal action in percent)
In short: (§1)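 Weeds grown in sandy loam in greenhouse, treated at one-leaf stage (2–3 weeks after sowing) with WP or EC formulations sprayed as aqueous suspension/emulsion at 600 to […] water with 0.2% wetting agent. Visual rating after about 3 weeks versus untreated controls, as % herbicidal action (100% = plants dead, 0% = like control).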

[2] = tested on: ALOMY; assay: Pre-emergence action against ALOMY; type: in vivo, Alopecurus myosuroides; settings: Alopecurus myosuroides, 504 h; dosage 320 g/ha; pre-emergence; scored visually after 3 weeks vs untreated controls; 100% = plants have died, 0% = like control plants; read-out: Pre-emergence action against ALOMY (herbicidal activity in percent)
In short: (§2)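 Seeds sown in sandy loam in wood-fiber pots and covered with soil. Greenhouse growth; visual damage scored after 3 weeks versus untreated controls (100% = dead, 0% = like control).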

[3] = tested on: AMARE; assay: Post-emergence action against AMARE; type: in vivo, Amaranthus retroflexus; settings: post-emergence, dosage 80 g/ha, visual assessment about 3 weeks after treatment vs untreated controls; for pest or weed control at 80 g/ha: Amaranthus retroflexus, 504 h, read-out: Post-emergence action against AMARE (herbicidal action in percent)
In short: as §1

[4] = tested on: POLCO; assay: Pre-emergence action against POLCO; type: in vivo, Polygonum convolvulus; settings: Fallopia convolvulus, 504 h; Dosage 320 g/ha, pre-emergence
In short: as §2

[5] = tested on: AMARE; assay: Pre-emergence action against AMARE; type: in vivo, Amaranthus retroflexus; settings: pre-emergence, dosage 320 g/ha, scored visually after 3 weeks vs untreated controls; for pest or weed control at 320 g/ha: Amaranthus retroflexus, 504 h, read-out: Pre-emergence action against AMARE (herbicidal activity)
In short: as §2

[6] = tested on: PHBPU; assay: Post-emergence action against PHBPU; type: in vivo, Pharbitis purpurea; settings: post-emergence, dosage 80 g/ha; for pest or weed control at 80 g/ha: Ipomoea purpurea, 504 h
In short: as §1

[7] = tested on: SETVI; assay: Pre-emergence action against SETVI; type: in vivo, Setaria viridis; settings: Setaria viridis, 504 h; pre-emergence, dosage 320 g/ha, scored visually after 3 weeks vs untreated controls; read-out: SETVI (Table B8, pre-emergence herbicidal activity)
In short: as §2

[8] = tested on: ABUTH; assay: Pre-emergence action against ABUTH; type: in vivo, Abutilon theophrasti; settings: pre-emergence, dosage 320 g/ha, scored visually after 3 weeks vs untreated controls; for pest or weed control at 320 g/ha: Abutilon theophrasti, 504 h, read-out: Pre-emergence action against ABUTH (herbicidal activity)
In short: as §2

[9] = tested on: VERPE; assay: Post-emergence action against VERPE; type: in vivo, Veronica persica; settings: Veronica persica, 504 h, dosage 80 g/ha
In short: as §1

[10] = tested on: VERPE; assay: Pre-emergence action against VERPE; type: in vivo, Veronica persica; settings: Dosage 320 g/ha, pre-emergence; for pest or weed control at 320 g/ha: Veronica persica, 504 h
In short: as §2

[11] = tested on: STEME; assay: Post-emergence action against STEME; type: in vivo, Stellaria media; settings: post-emergence, dosage 80 g/ha; for pest or weed control at 80 g/ha: Stellaria media, 504 h
In short: as §1

[12] = tested on: MATIN; assay: Pre-emergence action against MATIN; type: in vivo, Matricaria inodora; settings: Dosage 320 g/ha, pre-emergence; for pest or weed control at 320 g/ha: Tripleurospermum inodorum, 504 h
In short: as §2

[13] = tested on: MATIN; assay: Post-emergence action against MATIN; type: in vivo, Matricaria inodora; settings: post-emergence, dosage 80 g/ha, visual assessment about 3 weeks after treatment vs untreated controls; for pest or weed control at 80 g/ha: Tripleurospermum inodorum, 504 h, read-out: Post-emergence action against MATIN (herbicidal action in percent)
In short: as §1

[14] = tested on: PHBPU; assay: Pre-emergence action against PHBPU; type: in vivo, Pharbitis purpurea; settings: Ipomoea purpurea, 504 h; Dosage 320 g/ha, pre-emergence
In short: as §2

[15] = tested on: STEME; assay: Pre-emergence action against STEME; type: in vivo, Stellaria media; settings: Dosage 320 g/ha, pre-emergence; for pest or weed control at 320 g/ha: Stellaria media, 504 h
In short: as §2

[16] = tested on: VIOTR; assay: Pre-emergence action against VIOTR; type: in vivo, Viola tricolor; settings: Dosage 320 g/ha, pre-emergence; for pest or weed control at 320 g/ha: Viola tricolor, 504 h
In short: as §2

[17] = tested on: DIGSA; assay: Pre-emergence action against DIGSA; type: in vivo, Digitaria sanguinalis; settings: dosage 320 g/ha, scored visually after 3 weeks vs untreated controls
Text: (§3) Seeds of monocotyledonous and dicotyledonous weed plants and crop plants are laid out in sandy loam soil in wood-fiber pots and covered with soil. The compounds of the invention, formulated in the form of wettable powders (WP) or as emulsion concentrates (EC), are then applied to the surface of the covering soil in the form of an aqueous suspension or emulsion at a water application rate equating to […], with addition of 0.2% wetting agent. After the treatment, the pots are placed in a greenhouse and kept under good growth conditions for the trial plants. The damage to the test plants is scored visually after a test period of 3 weeks by comparison with untreated controls (herbicidal activity in percent (%): 100% activity=the plants have died, 0% activity=like control plants).

[18] = tested on: ECHCG; assay: Pre-emergence action against ECHCG; type: in vivo, Echinochloa crus-galli; settings: Echinochloa crus-galli, 504 h; pre-emergence, dosage 320 g/ha, scored visually after 3 weeks vs untreated controls; read-out: Pre-emergence action against ECHCG (herbicidal activity)
In short: as §2

[19] = tested on: AVEFA; assay: Pre-emergence action against AVEFA; type: in vivo, Avena fatua; settings: dosage 320 g/ha, scored visually after 3 weeks vs untreated controls
In short: as §2

[20] = tested on: POLCO; assay: Post-emergence action against POLCO; type: in vivo, Polygonum convolvulus; settings: Fallopia convolvulus, 504 h; post-emergence, dosage 80 g/ha
In short: as §1

[21] = tested on: HORMU; assay: Pre-emergence action against HORMU; type: in vivo, Hordeum murinum; settings: Hordeum murinum, 504 h, Dosage 320 g/ha
Text: as §3

[22] = tested on: ALOMY; assay: Post-emergence action against ALOMY; type: in vivo, Alopecurus myosuroides; settings: Alopecurus myosuroides, 504 h; Dosage 80 g/ha, post-emergence
In short: as §1

[23] = tested on: ECHCG; assay: Post-emergence action against ECHCG; type: in vivo, Echinochloa crus-galli; settings: Echinochloa crus-galli, 504 h; post-emergence, dosage 80 g/ha, visual assessment about 3 weeks after treatment vs untreated controls; read-out: Post-emergence action against ECHCG (herbicidal action in percent)
In short: as §1

[24] = tested on: LOLRI; assay: Pre-emergence action against LOLRI; type: in vivo, Lolium rigidum; settings: Lolium rigidum, 504 h, dosage 320 g/ha, scored visually after 3 weeks vs untreated controls, read-out: Pre-emergence action against LOLRI (herbicidal activity)
In short: as §2

[25] = tested on: SETVI; assay: Post-emergence action against SETVI; type: in vivo, Setaria viridis; settings: Setaria viridis, 504 h; post-emergence, dosage 80 g/ha, visual assessment about 3 weeks after treatment vs untreated controls; read-out: Post-emergence action against SETVI (herbicidal action in percent)
In short: as §1

[26] = tested on: CYPES; assay: Post-emergence action against CYPES; type: in vivo, Cyperus esculentus; settings: Cyperus esculentus, 504 h; post-emergence, dosage 80 g/ha, visual assessment about 3 weeks after treatment vs untreated controls; read-out: Post-emergence action against CYPES (herbicidal action in percent)
In short: as §1

[27] = tested on: VIOTR; assay: Post-emergence action against VIOTR; type: in vivo, Viola tricolor; settings: Viola tricolor, 504 h; post-emergence, dosage 80 g/ha
In short: as §1

Cc1ccc(C(=O)Nc2nnnn2C)c(C)c1C(=O)C1CC1 [1-3]
pest or weed control at 80 g/ha [1]: 100% | pest or weed control at 320 g/ha [2]: 90% | pest or weed control at 80 g/ha [3]: 100% | pest or weed control at 320 g/ha [4]: 80% | pest or weed control at 320 g/ha [5]: 100% | pest or weed control at 80 g/ha [6]: 90% | pest or weed control at 320 g/ha [7]: 90% | pest or weed control at 320 g/ha [8]: 90% | pest or weed control at 80 g/ha [9]: 90% | pest or weed control at 320 g/ha [10]: 90% | pest or weed control at 80 g/ha [11]: 90% | pest or weed control at 320 g/ha [12]: 100% | pest or weed control at 80 g/ha [13]: 90% | pest or weed control at 320 g/ha [14]: 80% | pest or weed control at 320 g/ha [15]: 90% | pest or weed control at 320 g/ha [16]: 90% | Pre-emergence action against DIGSA (herbicidal activity) [17]: 90% | pest or weed control at 320 g/ha [18]: 90%

CSc1c(C(=O)Nc2nnnn2C)ccc(C(F)F)c1C(C)=O [1-65]
pest or weed control at 80 g/ha [1]: 100% | pest or weed control at 320 g/ha ([19]; Avena fatua, 504 h, read-out: Pre-emergence action against AVEFA (herbicidal activity)): 100% | pest or weed control at 80 g/ha [20]: 100% | pest or weed control at 320 g/ha [2]: 100% | pest or weed control at 80 g/ha [3]: 100% | pest or weed control at 320 g/ha [4]: 100% | pest or weed control at 320 g/ha [21]: 90% | pest or weed control at 320 g/ha [5]: 100% | pest or weed control at 80 g/ha [6]: 100% | pest or weed control at 320 g/ha [7]: 100% | pest or weed control at 320 g/ha [8]: 100% | pest or weed control at 80 g/ha [9]: 100% | pest or weed control at 80 g/ha [22]: 80% | pest or weed control at 320 g/ha [10]: 100% | pest or weed control at 80 g/ha [23]: 100% | pest or weed control at 80 g/ha [11]: 100% | pest or weed control at 320 g/ha [12]: 100% | pest or weed control at 320 g/ha [24]: 80% | pest or weed control at 80 g/ha [13]: 100% | pest or weed control at 80 g/ha [25]: 100% | pest or weed control at 80 g/ha [26]: 90% | pest or weed control at 320 g/ha [14]: 100% | pest or weed control at 320 g/ha [15]: 100% | pest or weed control at 320 g/ha [16]: 100% | pest or weed control at 320 g/ha [18]: 100% | pest or weed control at 80 g/ha [27]: 100%

Cn1nnnc1NC(=O)c1ccc(C(F)(F)F)c(C(=O)C2CCCCC2)c1Cl [1-155]
Post-emergence action against ABUTH (herbicidal action in percent) [1]: 90% | Post-emergence action against AMARE (herbicidal action in percent) [3]: 90% | Pre-emergence action against AMARE (herbicidal activity) [5]: 80% | Post-emergence action against PHBPU [6]: 80 | Pre-emergence action against ABUTH (herbicidal activity) [8]: 100% | Post-emergence action against STEME [11]: 80 | Pre-emergence action against MATIN [12]: 90% | Post-emergence action against MATIN (herbicidal action in percent) [13]: 80% | Pre-emergence action against STEME [15]: 90% | Pre-emergence action against VIOTR [16]: 100% | Pre-emergence action against DIGSA (herbicidal activity) [17]: 90%

CSc1c(C(=O)Nc2nnnn2C)ccc(C(F)(F)F)c1C(=O)C1CCCCC1 [1-286]
Post-emergence action against ABUTH (herbicidal action in percent) [1]: 90% | Pre-emergence action against AVEFA (herbicidal activity) [19]: 90% | Post-emergence action against AMARE (herbicidal action in percent) [3]: 90% | Pre-emergence action against AMARE (herbicidal activity) [5]: 100% | Pre-emergence action against ABUTH (herbicidal activity) [8]: 100% | Pre-emergence action against VERPE [10]: 90% | Post-emergence action against STEME [11]: 90 | Pre-emergence action against MATIN [12]: 90% | Pre-emergence action against STEME [15]: 90% | Pre-emergence action against VIOTR [16]: 100% | Pre-emergence action against DIGSA (herbicidal activity) [17]: 100%

Reference: patent US11051515B2, “3-acyl-benzamides and their use as herbicides” (Bayer Aktiengesellschaft, priority 2017, dated 2021)
